Test results from patent EP1059033A1, “INDUSTRIAL ANTIBACTERIAL/ANTIFUNGAL AGENTS, ALGICIDES AND ANTI-BIOLOGICAL ADHESION AGENTS CONTAINING BENZYLAMINES” (Nissan Chemical Industries, Ltd., priority 1998, dated 1999).
In brackets after ≈: the same amount, converted by molar mass. Read-outs that look alike come from different tables or passages of the source.

What was measured:
Assay type in all cases: cell-based
[1] = system: freshwater green alga (Selenastrum capricornutum); assay: Inhibition of propagation of freshwater green alga (Example 4); settings: after 72 hours, cell number vs non-treated lot; for inhibition at 0.05 ppm: 50ppb, read-out: Propagation inhibiting rate(%) 50ppb; for inhibition at 0.5 ppm: 500ppb, read-out: Propagation inhibiting rate(%) 500ppb
Description: A predetermined amount of each of the compounds of the invention was dissolved in a culture medium containing 10^5 /ml of a freshwater green alga (Selenastrum capricornutum) at a logarithmic growth phase to prepare samples having a concentration of the compound of the invention in the medium of 500 ppb and 50ppb respectively. The samples were stationary cultured at 23±1 °C for […] under continuous illumination.
After 72 hours, the number of cells was measured using a hemacytometer to obtain propagation rate. The propagation inhibiting rate was calculated from comparison with the non-treated lot.

[2] = system: Trichophyton mentagrophytes; settings: 72 h, 100 ppm
Description: 31.3 ml of Trichophyton mentagrophytes to be tested was added to 125 ml of a potato dextrose agar culture medium (Nissui Seiyaku Co.). The medium was stirred not to foam the solutions, poured into plates uniformly and solidified.
Thereafter, predetermined amounts of the compounds of the invention were weighted and diluted with acetone to predetermined concentrations.
Paper disks were impregnated with samples containing predetermined amounts of the compounds of the invention, laid on a filter, dried with air and placed on a plate containing test microbe at equal intervals.
Trichophyton mentagrophytes was cultured at 28 °C for 3 days in a thermostatic chamber and the diameter of each inhibiting zone was measured to evaluate the activity of each compound. Symbols in the table mean the followings; • A: Trichophyton mentagrophytes, • ++: strongly inhibiting zone (equal to or more than 21 mm) is observed, • +: inhibiting zone (10 to 20 mm) is observed, • -: no inhibiting zone is observed.

[3] = system: Trichophyton mentagrophytes; assay: Agar dilution MIC (Example 2); settings: 168 h, agar plate, 27 °C, 7 days
Description: (§1) Series of diluted samples (20000, 10000, 5000, 2500, 2000, 1250, 625, 313, 156, 78, 39, 20, 10, 5, 2.5, 1.25 mg/l) of the compounds of the invention were prepared using dimethylsulfoxide. A sensitive culture medium-N (Nissui Seiyaku Co.) was used for bacteria and a potato dextrose agar culture medium (Nissui Seiyaku Co.) was used for fungi. 0.5 ml of each sample was added to and mixed with 9.5 ml of the culture medium, poured into a Petri dish and solidified to obtain a plate. As a result, the concentration of the compounds of the invention in the agar culture medium were 1000, 500, 250, 125, 100, 62.5, 31.3, 15.6, 7.8, 3.9, 2.0, 1.0, 0.5, 0.25, 0.125, 0.062 mg/l. The bacterium inoculated were cultured in a bouillon for the assay of sensitivity (Nissui Seiyaku Co.) at 37 °C for 20 hours, and the fungi were cultured in the potato dextrose agar culture medium (Nissui Seiyaku Co.) for 10 days and then a 10^6 CFU/ml suspension was prepared from each of them. A test bacteria or fungi suspension was streaked on an agar plate containing the compound of the present invention with platinum wire loop, and the agar plate was cultured at 37±1 °C for 18 to 20 hours for bacteria or at 27 °C for 7 days for fungi. A concentration at which no growth was seen was taken as minimum inhibitory concentration [MIC(mg/l)]. Symbols in the table mean the followings; • A: Bacillus subtilis, • B: Trichophyton mentagrophytes, • C: Rhodotorula mucilaginosa.

Chaetomium globosum = assay: Agar dilution MIC (Example 3); settings: 168 h, agar plate, 27 °C, 7 days
Description: (§2) Series of diluted samples (20000, 10000, 5000, 2500, 1250, 625, 313, 156, 78, 39 mg/l) of the compounds of the invention were prepared using dimethylsulfoxide. A sensitive culture medium-N (Nissui Seiyaku Co.) was used for bacteria and a potato dextrose agar culture medium (Nissui Seiyaku Co.) was used for fungi. 0.5 ml of each sample was added to and mixed with 9.5 ml of the culture medium, poured into a Petri dish and solidified to obtain a plate. As a result, the concentration of the compounds of the invention in the agar culture medium were 1000, 500, 250, 125, 62.5, 31.3, 15.6, 7.8, 3.9, 2.0 mg/l. The bacterium inoculated were cultured in a bouillon for the assay of sensitivity (Nissui Seiyaku Co.) at 37 °C for 20 hours, and the fungi were cultured in the potato dextrose agar culture medium (Nissui Seiyaku Co.) for 10 days and then a 10^6 CFU/ml suspension was prepared from each of them. A test bacteria or fungi suspension was streaked on an agar plate containing the compound of the present invention with platinum wire loop, and the agar plate was cultured at 37±1 °C for 18 to 20 hours for bacteria or at 27 °C for 7 days for fungi. A concentration at which no growth was seen was taken as minimum inhibitory concentration (MIC). Symbols in the tables mean the followings; • A: Bacillus subtilis, • B: Trichophyton mentagrophytes, • C: Staphylococcus aureus, • D: Aspergillus niger, • E: Penicillium funiculosum, • F: Candida albicans, • G: Micrococcus luteus, • H: Corynebacterium aquaticum, • I: Chaetomium globosum, • J: Fusarium moniliforme, • K: Saccharomyces cerevisiae, • L: Rhodotorula rubra, • M: Cladosporium cladosporioides, • N: Alternaria alternata.

[4] = system: Corynebacterium aquaticum; assay: Agar dilution MIC (Example 3); settings: Leifsonia aquatica, agar plate, 37±1 °C, 18 to 20 hours
Description: as §2

Saccharomyces cerevisiae = assay: Agar dilution MIC (Example 3); settings: 168 h, agar plate, 27 °C, 7 days
Description: as §2

[5] = system: freshwater blue-green alga (Microcystis aeruginosa); assay: Inhibition of propagation of freshwater algae (Example 6); settings: 500ppb
Description: (§3) A predetermined amount each of the compounds of the invention was dissolved in a culture medium containing 10^5 /ml of a freshwater alga at a logarithmic growth phase to prepare samples having a concentration of the compound of the invention in the medium of 500 ppb and 50 ppb respectively. A shaking culture at 100 rpm was performed for […] under continuous illumination at 20±2 °C for freshwater diatom and at 23±2 °C for other algae.
(§4) After 72 hours and 168 hours, the […] of cells was measured using a hemacytometer to obtain propagation rate. The propagation inhibiting rate was calculated from comparison with the non-treated lot. Symbols in the tables mean the followings; • A: freshwater green alga (Chlorella pyrenoidosa), • B: freshwater blue-green alga (Microcystis aeruginosa), • C: freshwater diatom (Diatoma elongatum), • D: freshwater green alga (Scenedesmus pannonicus).

[6] = system: freshwater green alga (Scenedesmus pannonicus); assay: as above; settings: Desmodesmus pannonicus, 500ppb
Description: as §3, §4

[7] = system: seawater diatom [Nitzschia closterium]; assay: Inhibition of propagation of seawater diatom (Example 5); settings: Cylindrotheca closterium, 72 h, read-out: Propagation inhibiting rate(%) 500ppb
Description: A predetermined amount of each of the compounds of the invention was dissolved in culture media containing 10^5 /ml of a seawater diatom [Nitzschia closterium] at a logarithmic growth phase to prepare samples having a concentration of the compound in the medium of 500 ppb. The samples were stationary cultured at 22±1 °C for […] under continuous illumination.
After 72 hours, cells were collected by centrifugation and disrupted by addition of methanol to extract chlorophyll, and the amount of chlorophyll was measured from absorbance using a spectrophotometer to obtain propagation rate. The propagation inhibiting rate was calculated from comparison with the non-treated lot.

Rhodotorula mucilaginosa = assay: Agar dilution MIC (Example 2); settings: 168 h, agar plate, 27 °C, 7 days
Description: as §1

[8] = system: freshwater diatom (Diatoma elongatum); assay: Inhibition of propagation of freshwater algae (Example 6); settings: Diatoma tenuis; for inhibition at 0.05 ppm: 50ppb; for inhibition at 0.5 ppm: 500ppb
Description: as §3, §4

[9] = 72hr, read-out: Propagation inhibiting rate(%) 500ppb 72hr
[10] = 168hr, read-out: Propagation inhibiting rate(%) 500ppb 168hr
[11] = 168hr, read-out: Propagation inhibiting rate (%) 500ppb 168hr

Structure (SMILES)	inhibition at 0.05 ppm [1] [%]	inhibition at 0.5 ppm [1] [%]	MIC [3] [µg/mL]	further results
CN(Cc1ccc(C(C)(C)C)cc1)Cc1cc(Cl)cc(Cl)c1 [Compound 1]	79	94	–	Judgment (Target bacteria: A) [2]: ++ (strongly inhibiting zone (equal to or more than 21 mm) is observed)
CN(Cc1ccc(C(C)(C)C)cc1)Cc1cccc(Cl)c1 [Compound 10]	87	95	0.25 (≈ 0.828 µM)	Judgment (Target bacteria: A) [2]: ++ (strongly inhibiting zone (equal to or more than 21 mm) is observed)
Cc1cccc(CN(C)Cc2ccc(C(C)(C)C)cc2)c1 [Compound 11]	70	93	< 1	MIC (Chaetomium globosum): 63 µg/mL (≈ 224 µM); MIC [4]: 63 µg/mL (≈ 224 µM)
CN(Cc1ccc(C(C)(C)C)cc1)Cc1cccc(C(F)(F)F)c1 [Compound 12]	–	90	< 1	MIC (Chaetomium globosum): 125 µg/mL (≈ 373 µM); MIC (Saccharomyces cerevisiae): 125 µg/mL (≈ 373 µM)
COc1cccc(CN(C)Cc2ccc(C(C)(C)C)cc2)c1 [Compound 13]	–	92	< 1	MIC [4]: 63 µg/mL (≈ 212 µM)
Clc1ccc(CNCc2c(Cl)cccc2Cl)cc1Cl [Compound 15]	–	94	3.9 (≈ 11.6 µM)	inhibition at 0.5 ppm [5, 9]: 92%; inhibition at 0.5 ppm [5, 10]: 100%; inhibition at 0.5 ppm ([6]; 72hr, read-out: Propagation inhibiting rate (%) 500ppb 72hr): 95%; inhibition at 0.5 ppm [6, 11]: 98%
CN(Cc1ccc(C(C)(C)C)cc1)Cc1ccccc1Cl [Compound 17]	–	83	1 (≈ 3.31 µM)	–
CN(Cc1ccc(C(C)(C)C)cc1)Cc1ccc(Cl)cc1Cl [Compound 18]	–	–	1 (≈ 2.97 µM)	–
CN(Cc1ccc(C(C)(C)C)cc1)Cc1c(F)c(F)c(F)c(F)c1F [Compound 21]	–	–	7.8 (≈ 21.8 µM)	–
CN(Cc1ccc(C(C)(C)C)cc1)Cc1cc(Cl)ccc1Cl [Compound 22]	–	–	1 (≈ 2.97 µM)	–
CN(Cc1ccc(C(C)(C)C)cc1)Cc1cccc(Cl)c1Cl [Compound 24]	–	85	0.125 (≈ 0.372 µM)	–
CN(Cc1ccc(Cl)c(Cl)c1)C1CCc2ccccc21 (centres unmarked) [Compound 25]	–	95	15.6 (≈ 50.9 µM)	–
CN(Cc1ccc(C(C)(C)C)cc1)C1CCOc2ccccc21 (centres unmarked) [Compound 26]	–	–	1 (≈ 3.23 µM)	–
CC(C)c1ccc(CN(C)Cc2cccc3ccccc23)cc1 [Compound 29]	95	96	–	inhibition at 0.5 ppm [7]: 76%; Judgment (Target bacteria: A) [2]: ++ (strongly inhibiting zone (equal to or more than 21 mm) is observed)
CN(Cc1ccc(C(C)(C)C)cc1)Cc1cccc2ccccc12 [Compound 30]	–	94	< 0.062	Judgment (Target bacteria: A) [2]: ++ (strongly inhibiting zone (equal to or more than 21 mm) is observed); MIC (Rhodotorula mucilaginosa): 15.6 µg/mL (≈ 49.1 µM)
CN(Cc1ccc(Cl)cc1)Cc1cccc2ccccc12 [Compound 31]	88	95	–	inhibition at 0.5 ppm [5, 9]: 90%; inhibition at 0.5 ppm [5, 10]: 100%; inhibition at 0.05 ppm ([8]; 72hr, read-out: Propagation inhibiting rate(%) 50ppb 72hr): 61%; inhibition at 0.05 ppm ([8]; 168hr, read-out: Propagation inhibiting rate(%) 50ppb 168hr): 87%; inhibition at 0.5 ppm [8, 9]: 81%; inhibition at 0.5 ppm [8, 10]: 95%; inhibition at 0.5 ppm [6, 11]: 79%; Judgment (Target bacteria: A) [2]: + (inhibiting zone (10 to 20 mm) is observed)
CN(Cc1ccc(C(C)(C)C)cc1)Cc1c(Cl)ccc(Cl)c1Cl [Compound 33]	–	–	1 (≈ 2.7 µM)	–
CN(Cc1ccc(C(C)(C)CCl)cc1)Cc1cccc2ccccc12 [Compound 35]	75	94	7.8 (≈ 22.2 µM)	MIC (Rhodotorula mucilaginosa): 7.8 µg/mL (≈ 22.2 µM)
CCCCCCc1ccc(CN(C)Cc2cccc3ccccc23)cc1 [Compound 36]	–	83	2 (≈ 5.79 µM)	–
CN(Cc1ccc(Cl)c(Cl)c1)Cc1cccc2ccccc12 [Compound 37]	–	69	0.5 (≈ 1.51 µM)	–
COc1ccc(CN(C)Cc2cccc3ccccc23)cc1 [Compound 38]	–	75	7.8 (≈ 26.8 µM)	–
Cc1ccc(CN(C)Cc2cccc3ccccc23)cc1 [Compound 39]	–	90	3.9 (≈ 14.2 µM)	–
CN(Cc1cc(Cl)cc(Cl)c1)Cc1cccc2ccccc12 [Compound 40]	61	61	–	–
Cc1ccc(CN(C)Cc2cccc3ccccc23)cc1C [Compound 41]	66	97	7.8 (≈ 27 µM)	–
CN(Cc1ccc(F)c(F)c1)Cc1cccc2ccccc12 [Compound 45]	–	87	15.6 (≈ 52.5 µM)	–
CN(Cc1ccc(C#N)cc1)Cc1cccc2ccccc12 [Compound 46]	–	96	15.6 (≈ 54.5 µM)	–
CC(C)Oc1ccc(CN(C)Cc2cccc3ccccc23)cc1 [Compound 47]	63	71	7.8 (≈ 24.4 µM)	–
CN(Cc1c(Cl)cccc1Cl)Cc1cccc2ccccc12 [Compound 48]	–	77	–	inhibition at 0.5 ppm [7]: 77%
Cc1cccc(CN(C)Cc2cccc3ccccc23)c1 [Compound 50]	–	93	15.6 (≈ 56.6 µM)	–
CCCOc1ccc(CN(C)Cc2cccc3ccccc23)cc1 [Compound 51]	–	–	15.6 (≈ 48.8 µM)	–
